Data as given in patent publication US20220204479A1, “PYRIMIDINE COMPOUND AND PREPARATION METHOD THEREFOR” (Wuhan Humanwell Innovative Drug Research And Development …, priority 2019, published 2022).
Converted amounts (≈) assume the structure as drawn. Where two headings read alike, the source gives them in different places. Blank lines part the entries; values can stand above or below the compound they belong to.

Key:
ATX enzyme in rat plasma = target: T1, ATX enzyme in rat plasma (Rattus norvegicus, UniProt Q64610); test: Inhibition of activity of ATX enzyme in rat plasma (LPA18:2 formation, LC-MSMS); assay type: biochemical; conditions: for inhibitory activity on ATX enzyme in rat plasma compared with control compounds 1 and 2: comparison in words
T1 construct: Whole blood was collected from rats and anticoagulated with heparin; from tissue; host or cells: rat plasma (heparin)
Experimental: Whole blood was collected from rats and anticoagulated with heparin. The blood collection tubes were centrifuged at 3,000 rpm for 15 min, and the plasma was placed on ice for use.
The compound was serially diluted with DMSO: 30% ACN=1:19 according to the conventional concentration requirements, and then placed on ice. 147 μL of plasma, which was placed on ice, was added to a 96-well plate, and then 3 μL of each of the gradient solutions of the compound (finally 1[…] DMSO) was added. A group containing none of the compounds was set as the positive group. The 96-well plate was mixed uniformly, and incubated at 37° C. for 3 h. In addition, a blank group was also provided. At the beginning of the incubation, the plasma of blank group was added to with excessive acetonitrile containing the internal standard LPA17: 0 to precipitate the plasma protein, vortexed to mix, and stored at 4° C. The blank group was provided to determine the baseline concentration of endogenous LPA.
A peak area of LPA18: 2 and a peak area of internal standard LPA17: 0 were detected using LC-MSMS mass spectrometry.
(§1) A ratio of the peak area of LPA18: 2 to the peak area of internal standard LPA17: 0 was calculated, and a formation inhibition rate of LPA18: 2 was calculated according to the following formula:
(§2) Inhibition rate (%)=100−(compound group with different concentrations−blank group)/(positive group−blank group)*100
According to the inhibition rates of different concentrations of the compound, the IC50 value of the compound for inhibiting activity of ATX enzyme in rat plasma, was calculated.

autotaxin (ATX) enzyme = target: T2, autotaxin (ATX) enzyme (Homo sapiens, UniProt Q13822); test: Autotaxin (ATX) enzyme activity inhibition test (Cayman Autotaxin Inhibitor Screening Assay Kit); assay type: biochemical; conditions: 37° C., 30 min, OD405, read-out: IC50, inhibitory effect on ATX enzyme activity
T2 construct: purchased Cayman 700580
Experimental: The inhibitory effects of the compounds on the autotaxin enzyme were detected using the Autotaxin Inhibitor Screening Assay Kit (Cayman, 700580). […] Subsequently, the 8 concentrations were diluted with Autotaxin Assay buffer (1×) provided in the kit into 19× compound working solutions (DMSO content was 1.9%). The Autotaxin Assay Reagent (10×) was taken out and diluted by 10 times with Autotaxin Assay Buffer (1×). The Autotaxin Substrate was taken out, dissolved by adding 1.2 mL of Autotaxin Assay Buffer (1×), mixed evenly and let stand by at room temperature. In a 96-well plate, 150 μL of Autotaxin Assay Buffer (1×), 10 μL of the prepared and diluted 19× compound working solution, 10 μL of Autotaxin Assay Reagent (1×), and 20 μL of the dissolved Autotaxin Substrate were added to each of the wells for each concentration, and homogenously mixed. The 96-well plate was shaken in a constant temperature shaker at 37° C. and incubated in the dark for 30 min, and then the plate was taken out and placed on a microplate reader to read OD405.

[1] = target: T3, ATX enzyme in human plasma (Homo sapiens, UniProt Q13822); test: Inhibition of activity of ATX enzyme in human plasma (LPA18:2 formation, LC-MSMS); assay type: biochemical; conditions: for IC50: human plasma, 37° C., 3 h, LPA18:2 formation, read-out: IC50, inhibitory effect on activity of ATX enzyme in human plasma
T3 construct: Whole blood was collected from healthy volunteers and anticoagulated with heparin; from tissue; host or cells: human plasma (heparin) from healthy volunteers
Experimental: Whole blood was collected from healthy volunteers and anticoagulated with heparin. The blood collection tubes were centrifuged at 3,000 rpm for 10 min, and the plasma was taken and stored at −80° C. for use.
The compound was serially diluted with DMSO according to the conventional concentration requirements, then 3 μL of each of the diluted compound solutions was added to a 96-well plate, and 147 μL of PBS was added to each well containing 3 μL of the compound solution. After mixing homogenously, 50 μL of the mixture was taken out and added to a new 96-well plate. The human plasma was taken out from the −80° C. refrigerator and thawed through rapid shaking in a 37° C. water bath. 50 μL of the human plasma was taken and added to the 96-well plate containing 50 μL of the diluted compound (the final system contained 1% DMSO). The group without the compound was set as the positive group. The 96-well plate was shaken and mixed uniformly, and incubated at 37° C. for 3 h. A blank group was also provided, and the plasma of the blank group was stored at −80° C. The blank group is provided to determine the baseline concentration of endogenous LPA.
After the incubation was finished, the blank group was thawed on ice and transferred to an incubation plate. Excess acetonitrile containing the internal standard LPA17: 0 was added to the incubation plate to precipitate the plasma protein. After vortex centrifugation, the supernatant was taken and diluted, and a peak area of LPA18: 2 and a peak area of internal standard LPA17: 0 were detected using LC-MSMS mass spectrometry.
as §1, §2
According to the inhibition rates of different concentrations of the compound, the IC50 value of the compound for inhibiting activity of ATX enzyme in human plasma was calculated.

[2] = Thermodynamic solubility test; assay type: physicochemical; conditions: thermodynamic from solid
Experimental: The compound was accurately weighed, and the prepared phosphate buffer (pH 7.4), FeSSIF solution (pH 5.8) and FaSSGF solution (pH 1.6) were added to prepare a solution with a concentration of 4 mg/mL, which was shaken at 1,000 rpm for 1 hour, and then incubated overnight at room temperature. After the incubation, the solution was centrifuged at 12,000 rpm for 10 min to remove undissolved particles, and the supernatant was transferred to a new centrifuge tube. The supernatant was diluted appropriately, then added with an acetonitrile solution containing the internal standard, and quantified using a standard curve prepared with the same matrix.

[3] = cited from earlier work; for probability of discontinuation due to serious adverse events: patients taking the drug
[4] = Pharmacokinetic test in canines; assay type: in vivo; conditions: dog, plasma; male beagle dogs, oral gavage 5 mg/kg
Experimental: (§3) For the pharmacokinetic test of rats, 3 male SD rats (180-240 g) were used, and fasted overnight. The rats were orally administered by gavage (10 mg/kg). […] The blood samples were centrifuged at 8,000 rpm at 4° C. for 6 min, and plasma was collected and stored at −20° C. The plasma at each time point was taken and added with an acetonitrile solution containing internal standard in 3 to 5 times the amount, vortexed and mixed for 1 min, and centrifuged at 13,000 rpm at 4° C. for 10 min. The supernatant was collected, added with water in 3 times the amount, and mixed. An appropriate amount of the mixture was taken for LC-MS/MS analysis. The main pharmacokinetic parameters were analyzed using WinNonlin 7.0 software with non-compartmental model.
For the pharmacokinetics test of canines, 3 male beagle dogs (8 to 10 kg) were used, and fasted overnight. The dogs were orally administered by gavage (5 mg/kg). The rest of the operation is the same as the pharmacokinetic test in rats.

[5] = Human liver microsome stability test; conditions: human liver microsomes; for Remaining percentage (%) of compound after incubation for 30 min: NADPH, 37° C.; for half-life at 1 µM: human
Experimental: The human liver microsome stability test was performed by incubating the compound and human liver microsomes in vitro for detection. First, the test compound was prepared into a 10 mM stock solution in DMSO solvent, and then the compound was diluted to 0.5 mM with acetonitrile. Human liver microsomes (Corning) were diluted with PBS and prepared as a microsome/buffer solution, which was used to dilute the 0.5 mM compound solution into a working solution. […] A deep-well multi-well plate was taken, 30 μL of the working solution and 15 μL of pre-warmed NADPH solution (6 mM) were sequentially added to each well to initiate a reaction, and the reaction was incubated at 37° C. […] After centrifugation, the supernatant was collected, and added with purified water in a ratio of 1:1 to perform LC-MS/MS detection. […] T1/2 was calculated by using Excel.

[6] = Pharmacokinetic test in rats; assay type: in vivo; conditions: Sprague-Dawley, rat, plasma, male SD rats, oral gavage 10 mg/kg
Experimental: as §3

[7] = rat plasma, 37° C., 3 h, LPA18:2 formation, read-out: IC50, inhibitory effect on activity of ATX enzyme in rat plasma
[8] = FaSSGF solution, fassgf or other biorelevant, FaSSGF pH 1.6, overnight at room temperature, read-out: Solubility, FaSSGF (pH 1.6)
[9] = FeSSIF solution, FeSSIF pH 5.8, overnight at room temperature, read-out: Solubility, FeSSIF (pH 5.8)
[10] = phosphate buffer (PBS), aqueous buffer, PBS pH 7.4, overnight at room temperature, read-out: Solubility, PBS (pH 7.4)

SMILES: CC1CN(C(=O)c2cnc(NC3Cc4ccccc4C3)nc2)CCC1COCc1c[nH]nn1 (centres unmarked) [Compound I-4, (4-(((1H-1,2,3-triazol-4-yl)methoxy)methyl)-3-methylpiperidin-1-yl)(2-((2,3-dihydro-1H-inden-2-yl)amino)pyrimidin-5-yl)methanone]
IC50 (ATX enzyme in rat plasma; [7]): 32.3 nM
solubility [2, 8]: 332 µg/mL (≈ 741 µM)
solubility [2, 10]: 147 µg/mL (≈ 329 µM)

SMILES: COC(=O)c1ccc2c(c1)NC(=O)/C2=C(\Nc1ccc(N(C)C(=O)CN2CCN(C)CC2)cc1)c1ccccc1 [Nintedanib]
probability of discontinuation due to serious adverse events [3]: 26.3%
incidence of gastrointestinal reactions ([3]; patients): ≤ 50%

SMILES: CCc1nc2c(C)cc(N3CCN(CC(=O)N4CC(O)C4)CC3)cn2c1N(C)c1nc(-c2ccc(F)cc2)c(C#N)s1 [Control compound 2, reference compound]
AUC(0-t) [4]: 14200 ng·h/mL
Cmax [4]: 2100 ng/mL
Tmax [4]: 120 min
IC50 (ATX enzyme in rat plasma): 413 nM
Remaining percentage (%) of compound after incubation for 30 min [5]: 24.8%
half-life at 1 µM [5]: 16 min
Tmax [6]: 30 min
AUC(0-t) ([6]; read-out: AUC0-t): 2570 ng·h/mL
Cmax ([6]; read-out: Cmax): 582 ng/mL

SMILES: Cc1ccc(=O)n(-c2ccccc2)c1 [Pirfenidone]
probability of discontinuation due to serious adverse events [3]: 20.9%

SMILES: CC(OCC1CCN(C(=O)c2cnc(NC3Cc4ccccc4C3)nc2)CC1)c1cn[nH]n1 (centres unmarked) [Compound I-2, (4-((1-(2H-1,2,3-triazol-4-yl)ethoxy)methyl)piperidin-1-yl)(2-((2,3-dihydro-1H-inden-2-yl)amino)pyrimidin-5-yl)methanone]
Remaining percentage (%) of compound after incubation for 30 min [5]: 39.65%
half-life at 1 µM [5]: 24 min
IC50 (autotaxin (ATX) enzyme): 3.39 nM
IC50 [1]: 24.7 nM

SMILES: CC1CC(COCc2c[nH]nn2)CCN1C(=O)c1cnc(NC2Cc3ccccc3C2)nc1 (centres unmarked) [Compound I-5, (4-(((1H-1,2,3-triazol-4-yl)methoxy)methyl)-2-methylpiperidin-1-yl)(2-((2,3-dihydro-1H-inden-2-yl)amino)pyrimidin-5-yl)methanone]
inhibitory activity on ATX enzyme in rat plasma compared with control compounds 1 and 2 (ATX enzyme in rat plasma): higher inhibitory activity on ATX enzyme in rat plasma than the control compounds 1 and 2
IC50 (ATX enzyme in rat plasma; [7]): 10.7 nM
IC50 (autotaxin (ATX) enzyme): 1.29 nM
IC50 [1]: 30.9 nM
solubility [2, 8]: 448 µg/mL (≈ 1000 µM)
solubility [2, 9]: 317 µg/mL (≈ 708 µM)
solubility [2, 10]: 129 µg/mL (≈ 288 µM)

Further lines, with some results ahead:

IC50 (ATX enzyme in rat plasma; [7]): 22.9 nM
IC50 (autotaxin (ATX) enzyme): 1.43 nM
IC50 [1]: 41.2 nM
solubility [2, 8]: 165 µg/mL (≈ 366 µM)
solubility [2, 9]: 49 µg/mL (≈ 109 µM)
solubility [2, 10]: 18.6 µg/mL (≈ 41.2 µM)
SMILES: O=C(c1cnc(NC2Cc3ccccc3C2)nc1)N1CCC(COCc2c[nH]nn2)C(F)C1 (centres unmarked) [Compound I-6, (4-(((1H-1,2,3-triazol-4-yl)methoxy)methyl)-3-fluoropiperidin-1-yl)(2-((2,3-dihydro-1H-inden-2-yl)amino)pyrimidin-5-yl)methanone]

IC50 (ATX enzyme in rat plasma; [7]): 14.7 nM
IC50 (autotaxin (ATX) enzyme): 1.16 nM
IC50 [1]: 14.6 nM
SMILES: O=C(c1cnc(NC2Cc3ccc(F)cc3C2)nc1)N1CCC(COCc2c[nH]nn2)CC1 (centres unmarked) [Compound I-7, (4-(((1H-1,2,3-triazol-4-yl)methoxy)methyl)piperidin-1-yl)(2-((5-fluoro-2,3-dihydro-1H-inden-2-yl)amino)pyrimidin-5-yl)methanone]

IC50 (ATX enzyme in rat plasma; [7]): 136 nM
IC50 (autotaxin (ATX) enzyme): 2.04 nM
SMILES: O=C(c1cnc(NC2Cc3cc(F)c(F)cc3C2)nc1)N1CCC(COCc2c[nH]nn2)CC1 [Compound I-8, (4-(((1H-1,2,3-triazol-4-yl)methoxy)methyl)piperidin-1-yl)(2-((5,6-difluoro-2,3-dihydro-1H-inden-2-yl)amino)pyrimidin-5-yl)methanone]

IC50 (autotaxin (ATX) enzyme): 6.71 nM
IC50 [1]: 42.1 nM
SMILES: CC(OCc1c[nH]nn1)C1CCN(C(=O)c2cnc(NC3Cc4ccccc4C3)nc2)CC1 (centres unmarked) [Compound I-3, (4-(1-((1H-1,2,3-triazol-4-yl)methoxy)ethyl)piperidin-1-yl)(2-((2,3-dihydro-TH-inden-2-yl)amino)pyrimidin-5-yl)methanone]

IC50 (ATX enzyme in rat plasma; [7]): 4.8 nM
IC50 (autotaxin (ATX) enzyme): 1.08 nM
IC50 [1]: 11.8 nM
SMILES: O=C(c1cnc(NC2Cc3ccc(F)cc3C2)nc1)N1CC2(CC(OCc3c[nH]nn3)C2)C1 (centres unmarked) [Compound I-10, (6-((1H-1,2,3-triazol-4-yl)methoxy)-2-azaspiro[3.3]heptan-2-yl)(2-((5-fluoro-2,3-dihydro-1H-inden-2-yl)amino)pyrimidin-5-yl)methanone]
inhibitory activity on ATX enzyme in rat plasma compared with control compounds 1 and 2 (ATX enzyme in rat plasma): higher inhibitory activity on ATX enzyme in rat plasma than the control compounds 1 and 2
inhibitory effect on ATX enzyme in human plasma compared with control compounds 1 and 2 ([1]; comparison in words): higher inhibitory effect on ATX enzyme in human plasma than the control compounds 1 and 2
